row,SMILES,melting point
1,COc1cc(/C=C2\SC(=O)NC2=O)cc(OC)c1OC [Compound 6],185 to 187 °C
2,CCOC(=O)CN1C(=O)S/C(=C\c2cc(OC)c(OC)c(OC)c2)C1=O [Compound 12e],145 to 147 °C
3,"CC(=O)CN1C(=O)S/C(=C\c2ccccc2)C1=O [Compound 13a, (Z)-5-Benzylidene-3-(2-oxopropyl)thiazolidine-2,4-dione]",139 to 140 °C
4,"CC(=O)CN1C(=O)S/C(=C\c2ccccc2[N+](=O)[O-])C1=O [Compound 13b, (Z)-5-(2-Nitrobenzylidene)-3-(2-oxopropyl)thiazolidine-2,4-dione]",146 to 148 °C
5,"CC(=O)CN1C(=O)S/C(=C\c2cccc([N+](=O)[O-])c2)C1=O [Compound 13c, (Z)-5-(3-Nitrobenzylidene)-3-(2-oxopropyl)thiazolidine-2,4-dione]",188 to 190 °C
6,"CC(=O)CN1C(=O)S/C(=C\c2ccc([N+](=O)[O-])cc2)C1=O [Compound 13d, (Z)-5-(4-Nitrobenzylidene)-3-(2-oxopropyl)thiazolidine-2,4-dione]",207 to 209 °C
7,COc1cc(/C=C2\SC(=O)N(CC(C)=O)C2=O)cc(OC)c1OC [Compound 13e],139 to 140 °C
8,"N#CCN1C(=O)S/C(=C\c2ccccc2)C1=O [Compound 14a, (Z)-2-(5-Benzylidenethiazolidine-2,4-dion-3-yl)acetonitrile]",230 to 232 °C
9,"N#CCN1C(=O)S/C(=C\c2ccccc2[N+](=O)[O-])C1=O [Compound 14b, (Z)-2-(5-(2-Nitrobenzylidene)thiazolidine-2,4-dion-3-yl)acetonitrile]",119 to 120 °C
10,"NC(=O)CN1C(=O)S/C(=C\c2ccccc2)C1=O [Compound 15a, (Z)-2-(5-Benzylidenethiazolidine-2,4-dion-3-yl)acetamide]",229 to 231 °C
11,"NC(=O)CN1C(=O)S/C(=C\c2ccccc2[N+](=O)[O-])C1=O [Compound 15b, (Z)-2-(5-(2-Nitrobenzylidene)thiazolidine-2,4-dion-3-yl)acetamide]",233 to 235 °C
12,"NC(=O)CN1C(=O)S/C(=C\c2ccc([N+](=O)[O-])cc2)C1=O [Compound 15d, (Z)-2-(5-(4-Nitrobenzylidene)thiazolidine-2,4-dion-3-yl)acetamide]",281 to 283 °C
13,COc1cc(/C=C2\SC(=O)N(CC(N)=O)C2=O)cc(OC)c1OC [Compound 15e],274 to 275 °C (dec.)

# Now from value to compound:
row,melting point,SMILES
1,182 to 183 °C,O=C(CN1C(=O)S/C(=C\c2ccccc2)C1=O)c1ccccc1 [Compound 16a]
2,232 to 233 °C,"O=C(CN1C(=O)S/C(=C\c2ccc([N+](=O)[O-])cc2)C1=O)c1ccccc1 [Compound 16d, (Z)-5-(4-Nitrobenzylidene)-3-(2-oxo-2-phenylethyl)thiazolidine-2,4-dione]"
3,187 to 189 °C,"COc1cc(/C=C2\SC(=O)N(CC(=O)c3ccccc3)C2=O)cc(OC)c1OC [Compound 16e, (Z)-3-(2-Oxo-2-phenylethyl)-5-(3,4,5-trimethoxybenzylidene)thiazolidine-2,4-dione]"
4,259 to 260 °C,O=C(CN1C(=O)S/C(=C\c2ccccc2)C1=O)Nc1ccccc1 [Compound 23a]
5,255 to 257 °C,"O=C(CN1C(=O)S/C(=C\c2cccc([N+](=O)[O-])c2)C1=O)Nc1ccccc1 [Compound 23c, (Z)-2-(5-(3-Nitrobenzylidene)thiazolidine-2,4-dion-3-yl)-N-phenylacetamide]"
6,259 to 261 °C,"O=C(CN1C(=O)S/C(=C\c2ccc([N+](=O)[O-])cc2)C1=O)Nc1ccccc1 [Compound 23d, (Z)-2-(5-(4-Nitrobenzylidene)thiazolidine-2,4-dion-3-yl)-N-phenylacetamide]"
7,196 to 198 °C,"COc1cc(/C=C2\SC(=O)N(CC(=O)Nc3ccc(C)cc3)C2=O)cc(OC)c1OC [Compound 24e, (Z)-N-(4-Methylphenyl)-2-(5-(3,4,5-trimethoxybenzylidene)thiazolidine-2,4-dion-3-yl)acetamide]"
8,254 to 256 °C,"COc1ccc(NC(=O)CN2C(=O)S/C(=C\c3ccc([N+](=O)[O-])cc3)C2=O)cc1 [Compound 25d, (Z)-N-(4-Methoxyphenyl)-2-(5-(4-nitrobenzylidene)thiazolidine-2,4-dion-3-yl)acetamide]"
9,215 to 216 °C,"COc1ccc(NC(=O)CN2C(=O)S/C(=C\c3cc(OC)c(OC)c(OC)c3)C2=O)cc1 [Compound 25e, (Z)-N-(4-Methoxyphenyl)-2-(5-(3,4,5-trimethoxybenzylidene)thiazolidine-2,4-dion-3-yl)acetamide]"
10,270 to 272 °C,"O=C(CN1C(=O)S/C(=C\c2ccccc2)C1=O)Nc1ccc([N+](=O)[O-])cc1 [Compound 26a, (Z)-2-(5-Benzylidenethiazolidine-2,4-dion-3-yl)-N-(4-nitrophenyl)acetamide]"
11,253 to 254 °C,"COc1cc(/C=C2\SC(=O)N(CC(=O)Nc3ccc([N+](=O)[O-])cc3)C2=O)cc(OC)c1OC [Compound 26e, (Z)-N-(4-Nitrophenyl)-2-(5-(3,4,5-trimethoxybenzylidene)thiazolidine-2,4-dion-3-yl)acetamide]"
12,243 to 245 °C,"O=C(CN1C(=O)S/C(=C\c2ccccc2)C1=O)Nc1ccccc1Cl [Compound 28a, (Z)-2-(5-Benzylidenethiazolidine-2,4-dion-3-yl)-N-(2-chlorophenyl)acetamide]"
13,222 to 223 °C,"COc1cc(/C=C2\SC(=O)N(CC(=O)Nc3ccccc3Cl)C2=O)cc(OC)c1OC [Compound 28e, (Z)-N-(2-Chlorophenyl)-2-(5-(3,4,5-trimethoxybenzylidene)thiazolidine-2,4-dion-3-yl)acetamide]"

# Source: article PMC11280390, “Synthesis of Nitrostyrylthiazolidine-2,4-dione Derivatives Displaying Antileishmanial Potential” (Pharmaceuticals, 2024)
